Experiments:
[1] = system: murine lymphocytic P388 leukemia cell line; assay: Inhibition of murine lymphocytic P388 leukemia cell line; format: cell-based; conditions: MOUSE LEUKEMIA P388
Description: (§1) The dipeptides (1a-1e) were in turn prepared by coupling dolaproine (5) with the respective amino acids. All compounds were characterized (physical and spectroscopic data) and tested against the murine lymphocytic P388 leukemia cell line as well as six major human cancer cell lines.

[2] = system: OVCAR-3; assay: Inhibition of human cancer cell line OVCAR-3 (Ovarian); format: cell-based
Description: (§2) Current research in the control of cancer in the United States is coordinated by the National Cancer Institute (NCI). To determine whether a substance has anti-cancer properties, the NCI has established a systematic protocol. […] The protocol, and the established statistical means for analyzing the results obtained by the standardized testing are fully described in the literature. See: Boyd, Dr. Michael R., Principles & Practice of Oncology, PPO Updates, Volume 3, Number 10, October 1989, for an in depth description of the testing protocol; and Paull, K. D., "Display and Analysis of Patterns of Differential Activity of Drugs Against Human Tumor Cell Lines; Development of Mean Graph and COMPARE Algorithm", Journal of the National Cancer Institute Reports, Vol. 81, No. 14, Page 1088, Jul. 14, 1989 for a description of the methods of statistical analysis. Both of these references are incorporated herein by this reference thereto.
as §1

[3] = system: SF-295; assay: Inhibition of human cancer cell line SF-295 (CNS); format: cell-based
Description: as §2, §1

[4] = system: A498; assay: Inhibition of human cancer cell line A498 (Renal); format: cell-based
Description: as §2, §1

[5] = system: NCI-H460; assay: Inhibition of human cancer cell line NCI-H460 (Lung-NSC); format: cell-based
Description: as §2, §1

[6] = system: KM20L2; assay: Inhibition of human cancer cell line KM20L2 (Colon); format: cell-based
Description: as §2, §1

[7] = system: SK-MEL-3; assay: Inhibition of human cancer cell line SK-MEL-3 (Melanoma); format: cell-based
Description: as §2, §1

[8] = system: P388 Lymphocytic Leukemia; assay: Dolastatin 10 in murine in vivo system, P388 Lymphocytic Leukemia
Description: (§3) Presently Dolastatin 10, a linear pentapeptide represents the most important member and is a potentially useful antineoplastic agent.

[9] = system: LOX Human Melanoma Xenograph; assay: Dolastatin 10 in murine in vivo system, LOX Human Melanoma Xenograph (Nude Mouse)
Description: as §3

[10] = system: Human Mammary Xenograph; assay: Dolastatin 10 in murine in vivo system, Human Mammary Xenograph Nude Mouse
Description: as §3

[11] = system: OVCAR-3 Human Ovary Xenograph; assay: Dolastatin 10 in murine in vivo system, OVCAR-3 Human Ovary Xenograph Nude Mouse; conditions: 40 μg/kg
Description: The synthesis of potentially useful peptides presents one of the most essential and promising approaches to new types of anticancer and immunosuppressant drugs. The Dolastatins, an unprecedented series of linear and cyclic antineoplastic and/or cytostatic peptides isolated from Indian Ocean sea hare Dolabella auricularia represent excellent leads for synthetic modification. The very productive sea hare Dolabella auricularia has produced a number of structurally distinct peptides with excellent antineoplastic activity. Presently Dolastatin 10, a linear pentapeptide represents the most important member and is a potentially useful antineoplastic agent. […] Recently the total synthesis and absolute configuration of this structurally unique and biologically active peptide was reported.

Substance | ED50 [1] [ng/mL] | GI-50 [2] [µg/mL] | LC-50 [2] [µg/mL] | TGI [2] [ng/mL] | GI-50 [3] [µg/mL] | LC-50 [3] [µg/mL] | TGI [3] [ng/mL] | GI-50 [4] [µg/mL] | LC-50 [4] [µg/mL] | TGI [4] [ng/mL] | GI-50 [5] [µg/mL] | LC-50 [5] [µg/mL] | TGI [5] [ng/mL] | GI-50 [6] [µg/mL] | LC-50 [6] [µg/mL] | TGI [6] [ng/mL] | GI-50 [7] [µg/mL] | LC-50 [7] [µg/mL] | TGI [7] [ng/mL] | further results
Dov-Val-Dil-Dap-Met-OCH3 [pentapeptide 3e] | 0.389 | < 0.0001 | > 1 | < 0.1 | < 0.0001 | > 1 | 56 | < 0.0001 | > 1 | > 1000 | < 0.0001 | > 1 | 130 | < 0.0001 | > 1 | 0.15 | < 0.0001 | > 1 | > 1000 | 
Dov-Val-Dil-Dap-Pro-OCH3 [pentapeptide 3c] | 8.8 | < 0.0001 | > 1 | < 0.1 | < 0.0001 | > 1 | 2.4 | < 0.0001 | > 1 | 5.4 | < 0.0001 | > 1 | 1.3 | < 0.0001 | > 1 | 2.2 | < 0.0001 | > 1 | < 0.1 | 
Dov-Val-Dil-Dap-Phe-NH2 [pentapeptide 3b] | 19.5 | 0.0076 | 0.066 | 3.7 | 0.00085 | > 1 | 49 | 0.00097 | > 1 | 6.2 | 0.000095 | > 1 | 11 | < 0.0001 | 0.083 | 19 | 0.00017 | > 1 | 12 | 
Dov-Val-Dil-Dap-Ile-OCH3 [pentapeptide 3d] | 0.441 | < 0.0001 | 0.043 | < 0.1 | < 0.0001 | > 1 | 170 | < 0.0001 | > 1 | < 0.1 | < 0.0001 | > 1 | 0.88 | < 0.0001 | > 1 | < 0.1 | < 0.0001 | > 1 | < 0.1 | 
Dov-Val-Dil-Dap-Phe-OCH3 [pentapeptide 3a] | 66.7 | < 0.0001 | > 1 | 1.1 | < 0.0001 | > 1 | 0.17 | < 0.0001 | > 1 | 2.9 | < 0.0001 | > 1 | 11 | < 0.0001 | > 1 | 1.1 | < 0.0001 | > 1 | 0.68 | 
Dolastatin 10 |  |  |  |  |  |  |  |  |  |  |  |  |  |  |  |  |  |  |  | T/C ([8]; 3.25 μg/kg): 146; T/C ([8]; 6.5 μg/kg): 155; T/C ([9]; 3.25 μg/kg): 170; T/C ([9]; 6.5 μg/kg): 206; T/C ([9]; 13 μg/kg): 301; T/C ([9]; 26 μg/kg): 301; T/C ([10]; 6.25 μg/kg): 178; T/C ([10]; 13 μg/kg): 137; T/C [11]: 300
